Key:
NF-κB = assay: NF-κB-Luciferase reporter assay in THP-1 NF-κB-Lucia cells; assay type: cell-based, human
Description: NF-κB-Luciferase reporter assay. THP-1 NF-κB-Lucia cells were plated at 10,000 cells per well with 10 ng/mL PMA. Three days later, media was removed and replaced with media containing LPS (1 μg/mL) and dilution series of compounds in flat bottom clear 96-well plates for 24 hours. A day later, 20 μL of media was transferred to a 96-well white plate and 50 μL of QuantiLuc Gold reagent (InvivoGen rep-qlcg5) was added per well; plate was mixed in the plate reader and luminescence was read using a Promega GloMax Reader.

[1] = system: human iPSC-derived microglia; assay: Cytokine release assay in LPS-stimulated iPSC-derived microglia; assay type: cell-based; settings: 20 μM, panel of 36 cytokines, p<0.05
Description: Cytokine release assay. […] Subsequently, media cleared of cells and debris was collected, snap-frozen and stored at −80° C. until processing with the Human Cytokine Array kit (R&D Systems, Catalog #ARY005). Briefly, media was diluted in Array Buffer 4 and incubated with a cocktail of biotinylated detection antibodies for 1 h at room temperature with rocking. The resulting immunocomplexes were incubated with nitrocellulose membranes spotted with capture antibodies overnight at 4° C. (see below for full list of targets). The membranes were washed 4× with Wash Buffer, then incubated with IRDye 800CW Streptavidin for 30 minutes at room temperature (1:2000 in Array Buffer 5, LI-COR #926-32230). The membranes were washed 4× and imaged with an Odyssey CLx instrument. Intensity for each spot was quantified with ImageStudio. Technical duplicate values for each target were averaged, and differential cytokine release by microglia exposed to LPS+vehicle versus vehicle only was determined (n=2 biological replicates, two-tailed t-tests, P<0.05).

CK2α1 and CK2α2 = assay: CK2 protein levels by Western in IL1-β-stimulated astrocytes; assay type: cell-based, human; settings: after 5 hours
Description: Western blotting. For drug treatment assays, cells were treated with vehicle (DMSO) or 20 μM compound and stimulated with IL1B 10 ng/mL for 1 h, 6 h, or 24 h. Cells were dissociated with 1:1 Accutase:papain for 3 min at rt, pelleted for 5 min at 800 g, and washed twice with cold DPBS. […] Protein concentration was determined by BCA assay (Thermo Fisher). […] The blots were incubated with primary antibodies overnight at 4° C. in PBS containing 0.1% casein and 0.2% Tween-20. […] The membranes were washed 5× with 0.1% PBS-Tween20 (PBST) and incubated with secondary antibodies (1:20,000) for 1 h at rt in PBS with 0.1% casein, 0.2% Tween20, and 0.1% SDS. […] The blots were then washed 4× with PBST and 1× with DPBS. The blots were imaged using the Odyssey CLx imaging system and blots were analyzed on the ImageStudio software (LI-COR).

IκBα = assay: Immunoblot of IκBα and pIκB S32 in inflamed astrocytes; assay type: cell-based, human; settings: 6 hours
Description: Western blotting. For drug treatment assays, cells were treated with vehicle (DMSO) or 20 μM compound and stimulated with IL1B 10 ng/mL for 1 h, 6 h, or 24 h. Cells were dissociated with 1:1 Accutase:papain for 3 min at rt, pelleted for 5 min at 800 g, and washed twice with cold DPBS. Pellets were lysed with RIPA buffer (Sigma R^0278) supplemented with Halt protease inhibitor cocktail (Thermo Fisher 78445) and clarified by centrifugation (16,000 g, 10 min, 4° C.). Protein concentration was determined by BCA assay (Thermo Fisher). Proteins were denatured in 1×LDS Buffer and 2.5% beta-mercaptoethanol (Sigma) for 10 min at 70° C., separated on Bolt 4-12% Bis-Tris Plus polyacrylamide gels (Thermo Fisher), transferred to PVDF membranes using the iBlot 2 Dry Blotting System, and blocked with 0.1% casein-PBS (Bio-Rad) for 1 h at room temperature. The blots were incubated with primary antibodies overnight at 4° C. in PBS containing 0.1% casein and 0.2% Tween-20. […] The blots were imaged using the Odyssey CLx imaging system and blots were analyzed on the ImageStudio software (LI-COR).

IL-6 and TNFAIP2 = IL-6 and TNFAIP2 induction in AD patient-derived astrocytes; assay type: cell-based, human; settings: IL1-β
tau phosphorylation = assay: Tau phosphorylation in induced neurons (iNs); assay type: cell-based; settings: FIG. 14

**Q.** For COc1cc(-c2cc(=O)c3c(O)cc(O)cc3o2)ccc1O [CHR, Chrysoeriol], which IC50 (NF-κB; Homo sapiens, THP-1, FIG. 5B, read-out: IC50 in THP-1 monocyte NF-κB-Luciferase reporter cells) is on record?
**A.** < 4 µM

**Q.** What about the “SAR summary: activity in NF-κB reporter assay and for CK2 kinase inhibition” value (NF-κB; at 20 μM, FIG. 5A, some values sourced from Baier et al. (2017) and Lolli et al. (2012)) of the same molecule?
**A.** active

**Q.** And the “Release of LPS-induced pro-inflammatory cytokines” value [1]?
**A.** significantly blocked

**Q.** What about the “CK2α1 and CK2α2 levels” value (CK2α1 and CK2α2) of the same molecule?
**A.** reduced to baseline

**Q.** And the IκBα levels (IκBα)?
**A.** dose-dependently boosted

**Q.** And the “phosphorylated IκB S32” value (IκBα)?
**A.** remained unchanged

**Q.** What about the “Hyperinflammatory phenotype (IL-6 and TNFAIP2 induction)” value (IL-6 and TNFAIP2) of the same molecule?
**A.** mitigated

**Q.** What about the Tau phosphorylation (tau phosphorylation) of the same molecule?
**A.** reduces

From US20260199350A1, “FLAVONES, QUINOLINONES, QUINAZOLINONES, AND AURONES, AND USES IN CK2-MEDIATED DISEASES” (Salk Institute for Biological Studies, priority 2022, published 2026)
